In series [1] the test system is HBV. Briefly: HBV-DNA antiviral assay using HepG2.117 cells. The format is cell-based, HBV genotype D. The following applies: Hepatitis B virus, 72 h; HBV DNA inhibition, intracellular HBV DNA by qPCR, HepG2.117 cells, 3 days incubation; read-out: EC50. The protocol: (§1) The following assay procedure describes the HBV antiviral assay, using HepG2.117 cells, which carry a stably integrated genotype D HBV genome under the control of a Tet-off promoter, and intracellular HBV DNA quantification as endpoint. Cell viability is assessed in parallel by measuring the intracellular ATP content using CellTiter-Glo 2.0 (Promega).
On day 0, HepG2.117 cells (which are maintained in routine cell culture with doxycycline present in the medium at a final concentration of 1 μg/mL) are seeded in 96-well plates (white with clear bottom) at a density of 2.0×10^4 cells/well (0.1 mL/well) in medium without doxycycline to induce pgRNA transcription and subsequent formation of HBV particles. The cells are incubated at 37° C. and 5% CO2.
(§2) On day 1, medium is removed from each well, the test articles are diluted in culture medium without doxcycyline and 100 μL was added to cell culture wells (9 concentrations, 4-fold dilution). For each plate, 6 untreated (merely DMSO) wells are included. The final concentration of DMSO in the culture medium is 2%. Each plate is prepared in duplicate (one for HBV DNA extraction, one for CellTiter-Glo 2.0 measurement). The cells are incubated at 37° C. and 5% CO2 for 3 days.
(§3) On day 4, cell viability is assessed using CellTiter-Glo 2.0 and cell lysates are prepared for HBV DNA extraction and subsequent quantification by qPCR.
Medium is removed from each well and 100 μL of 0.33% NP-40 in H2O was added to each well. Plates are sealed, incubated at 4° C. for 5 mins, vortexed extensively and centrifuged briefly. Next, 35 μL of lysate is added to 65 μL QuickExtract DNA Extraction Solution (Epicentre) in a PCR plate for each well. PCR plate is incubated at 65° C. for 6 mins, 98° C. for 2 mins and finally cooled to 4° C. HBV DNA is then quantified by qPCR with HBV-specific primers and probes as specified in Table 2 using the Bio-Rad SSOAdvanced Universal Probes Supermix on a CFX96 machine (Bio-Rad). The PCR cycle program consisted of 95° C. for 3 mins, followed by 40 cycles at 95° C. for 10 sec and 60° C. for 30 sec.
A DNA standard is prepared by dilution of an IDT gBlock corresponding to the amplicon with concentrations ranging from 10^2 to 10^8 copies/input (i.e., per 4 μL) and used to generate a standard curve by plotting Cq values vs. HBV DNA standard concentration. The quantity of HBV DNA in each sample is determined by interpolating from the standard curve.
(§4) Cell viability is calculated as follows: % Cell viability=(luminescence value of test sample)/(average luminescence value of 2% DMSO control)×100%. HBV DNA inhibition was calculated as follows: 100−(HBV DNA copy number of test sample)/(average HBV DNA copy number of 2% DMSO control)×100%. No normalization to entecavir is required due to the excellent dynamic window of this assay. The CC50, EC50 and EC90 values were determined by dose-response curves fitted using non-linear regression.

Series [2] is described as follows: Cell viability by CellTiter-Glo 2.0 (intracellular ATP) in HepG2.117 cells. The following applies: human, CellTiter-Glo 2.0, HepG2.117 cells, 3 days incubation. The format is cell-based. How it is done:
as §1, §2, §3
Using the other plates, the cell viability is quantified by CellTiter-Glo 2.0 according to the manufacturer's manual. In brief, 100 μL of reagent solution is added to the culture plates and shaken for 2′. The plates are incubated at rt for 10 min and luminescence signal is subsequently measured on a VarioSkan Lux (ThermoFisher) plate reader.
as §4
A general note: Cellular ATP, detected with luciferase, serves as a proxy for viable cell number.

SMILES strings stand for the structures.

As a reminder, the EC50 is the concentration needed to bring the measured effect to its halfway point. As usually defined, the CC50 is the concentration at which the toxic effect on the cells reaches its halfway point. Low values mean greater toxicity to the cells, high ones lower toxicity to the cells. With `C=C[C@H](C)Nc1nc2c(c(=O)n1-c1ccc(C(=O)NC)c(Cl)c1)C[C@@H](C)N(C(=O)c1ccc(Br)c(C(F)(F)F)c1)C2` [Compound 20, 4-((R)-7-(4-bromo-3-(trifluoromethyl)benzoyl)-2-(((S)-but-3-en-2-yl)amino)-6-methyl-4-oxo-5,6,7,8-tetrahydropyrido[3,4-d]pyrimidin-3(4H)-yl)-2-chloro-N-methylbenzamide], the EC50 in series [1] is below 50 nM. This compound displayed a CC50 at 3 days in series [2] of 2950 nM.
Taken in the same sequence, the figures for `C=C[C@H](C)Nc1nc2c(c(=O)n1-c1ccc(C(=O)NC)cc1Cl)C[C@@H](C)N(C(=O)c1ccc(Br)c(C(F)(F)F)c1)C2` (atropisomer, axis not shown) [Compound 44, 4-[(6R)-7-[4-bromo-3-(trifluoromethyl)benzoyl]-6-methyl-2-[[(1S)-1-methylallyl]amino]-4-oxo-6,8-dihydro-5H-pyrido[3,4-d]pyrimidin-3-yl]-3-chloro-N-methyl-benzamide] were below 50 nM and above 50000 nM.
The corresponding values for `C=C[C@H](C)Nc1nc2c(c(=O)n1-c1ccc(C(=O)NC)nc1)C[C@@H](C)N(C(=O)c1ccc(Br)c(C(F)(F)F)c1)C2` [Compound 41, 5-[(6R)-7-[4-bromo-3-(trifluoromethyl)benzoyl]-6-methyl-2-[[(1S)-1-methylallyl]amino]-4-oxo-6,8-dihydro-5H-pyrido[3,4-d]pyrimidin-3-yl]-N-methyl-pyridine-2-carboxamide] are below 50 nM and above 50000 nM.
Taken in the same sequence, the figures for `C=C[C@H](C)Nc1nc2c(c(=O)n1-c1ccc(-c3cnn(C)c3)cc1)C[C@@H](C)N(C(=O)c1ccc(Br)c(C(F)(F)F)c1)C2` [Compound 27, (R)-7-(4-bromo-3-(trifluoromethyl)benzoyl)-2-(((S)-but-3-en-2-yl)amino)-6-methyl-3-(4-(1-methyl-1H-pyrazol-4-yl)phenyl)-5,6,7,8-tetrahydropyrido[3,4-d]pyrimidin-4(3H)-one] were below 50 nM and 22800 nM.
For `C=C[C@H](C)Nc1nc2c(c(=O)n1-c1cc(C)c3c(c1)ncn3C)C[C@@H](C)N(C(=O)c1ccc(Br)c(C(F)(F)F)c1)C2` [Compound 47, (6R)-7-[4-bromo-3-(trifluoromethyl)benzoyl]-3-(1,7-dimethylbenzimidazol-5-yl)-6-methyl-2-[[(1S)-1-methylallyl]amino]-6,8-dihydro-5H-pyrido[3,4-d]pyrimidin-4-one], the EC50 in series [1] was below 50 nM. This compound also registered a CC50 at 3 days in series [2] of 23700 nM.
Turning to `C=C[C@H](C)Nc1nc2c(c(=O)n1-c1ccc3c(ncn3C)n1)C[C@@H](C)N(C(=O)c1ccc(Br)c(C(F)(F)F)c1)C2` [Compound 40, (6R)-7-[4-bromo-3-(trifluoromethyl)benzoyl]-6-methyl-2-[[(1S)-1-methylallyl]amino]-3-(1-methylimidazo[4,5-b]pyridin-5-yl)-6,8-dihydro-5H-pyrido[3,4-d]pyrimidin-4-one], the half-maximal effective concentration (EC50) in series [1] is below 50 nM. The CC50 at 3 days in series [2] was above 50000 nM.
Taken in the same sequence, the figures for `C#Cc1ccc(C(=O)N2Cc3nc(N[C@@H](C)C=C)n(-c4ccc(C(=O)NC)cc4)c(=O)c3C[C@H]2C)cc1C(F)(F)F` [Compound 50, 4-[(6R)-7-[4-ethynyl-3-(trifluoromethyl)benzoyl]-6-methyl-2-[[(1S)-1-methylallyl]amino]-4-oxo-6,8-dihydro-5H-pyrido[3,4-d]pyrimidin-3-yl]-N-methyl-benzamide] were below 50 nM and above 50000 nM.
Take `C=C[C@@H](C)Nc1nc2c(c(=O)n1-c1ccc(C(=O)NC)c(Cl)c1)C[C@@H](C)N(C(=O)c1ccc(Br)c(C(F)(F)F)c1)C2` [Compound 19, 4-((R)-7-(4-bromo-3-(trifluoromethyl)benzoyl)-2-(((R)-but-3-en-2-yl)amino)-6-methyl-4-oxo-5,6,7,8-tetrahydropyrido[3,4-d]pyrimidin-3(4H)-yl)-2-chloro-N-methylbenzamide]: the half-maximal effective concentration (EC50) in series [1] was below 50 nM. The CC50 at 3 days in series [2] was above 500 nM.
The corresponding values for `C=C[C@H](C)Nc1nc2c(c(=O)n1-c1cc(F)c3ncn(C)c3c1)C[C@@H](C)N(C(=O)c1ccc(Br)c(C(F)(F)F)c1)C2` [Compound 49, (6R)-7-[4-bromo-3-(trifluoromethyl)benzoyl]-3-(7-fluoro-3-methyl-benzimidazol-5-yl)-6-methyl-2-[[(1S)-1-methylallyl]amino]-6,8-dihydro-5H-pyrido[3,4-d]pyrimidin-4-one] are below 50 nM and 23000 nM.
Regarding `C=CC(Nc1nc2c(c(=O)n1-c1ccc(C(=O)NC)cc1)C[C@@H](C)N(C(=O)c1ccc(Br)c(C(F)(F)F)c1)C2)C1CCC1` (stereo partly drawn) [Compound 15], the EC50 in series [1] is below 50 nM. The CC50 at 3 days in series [2] is above 500 nM.
The corresponding values for `C=C[C@H](C)Nc1nc2c(c(=O)n1-c1ccc(C(=O)NC)nn1)C[C@@H](C)N(C(=O)c1ccc(Br)c(C(F)(F)F)c1)C2` [Compound 30, 6-((R)-7-(4-bromo-3-(trifluoromethyl)benzoyl)-2-(((S)-but-3-en-2-yl)amino)-6-methyl-4-oxo-5,6,7,8-tetrahydropyrido[3,4-d]pyrimidin-3(4H)-yl)-N-methylpyridazine-3-carboxamide] are below 50 nM and above 50000 nM.
Turning to `C=CC(C)(C)Nc1nc2c(c(=O)n1-c1ccc(C(=O)NC)cc1)C[C@@H](C)N(C(=O)c1ccc(Br)c(C(F)(F)F)c1)C2` [Compound 1, (R)-4-(7-(4-bromo-3-(trifluoromethyl)benzoyl)-6-methyl-2-((2-methylbut-3-en-2-yl)amino)-4-oxo-5,6,7,8-tetrahydropyrido[3,4-d]pyrimidin-3(4H)-yl)-N-methylbenzamide], the EC50 in series [1] is below 50 nM. For the same compound, the CC50 at 3 days in series [2] was above 500 nM.
Taken in the same sequence, the figures for `C=CC(C)(C)Nc1nc2c(c(=O)n1-c1ccc3c(c1)ncn3C)C[C@@H](C)N(C(=O)c1ccc(Br)c(C(F)(F)F)c1)C2` [Compound 29, (R)-7-(4-bromo-3-(trifluoromethyl)benzoyl)-6-methyl-3-(1-methyl-1H-benzo[d]imidazol-5-yl)-2-((2-methylbut-3-en-2-yl)amino)-5,6,7,8-tetrahydropyrido[3,4-d]pyrimidin-4(3H)-one] were below 50 nM and 30500 nM.
The corresponding values for `C=CC1(Nc2nc3c(c(=O)n2-c2ccc(C(=O)NC)cc2)C[C@@H](C)N(C(=O)c2ccc(Br)c(C(F)(F)F)c2)C3)CCC1` [Compound 8] are below 50 nM and 7330 nM.
For the compound `C=CC(Nc1nc2c(c(=O)n1-c1ccc(C(=O)NC)cc1)C[C@@H](C)N(C(=O)c1ccc(Br)c(C(F)(F)F)c1)C2)C1CC1` (stereo partly drawn) [Compound 11a], the EC50 in series [1] is below 50 nM. In series [2], this compound displayed a CC50 at 3 days above 50000 nM.
With `C=C[C@@H](C)Nc1nc2c(c(=O)n1-c1ccc3c(c1)ncn3C)C[C@@H](C)N(C(=O)c1ccc(Br)c(C(F)(F)F)c1)C2` [Compound 18, (R)-7-(4-bromo-3-(trifluoromethyl)benzoyl)-2-(((R)-but-3-en-2-yl)amino)-6-methyl-3-(1-methyl-1H-benzo[d]imidazol-5-yl)-5,6,7,8-tetrahydropyrido[3,4-d]pyrimidin-4(3H)-one], the EC50 in series [1] was below 50 nM. In series [2], this compound registered a CC50 at 3 days above 500 nM.
On to `C=C[C@H](C)Nc1nc2c(c(=O)n1-c1cc(C(=O)NC)n(C)n1)C[C@@H](C)N(C(=O)c1ccc(Br)c(C(F)(F)F)c1)C2` [Compound 9, 3-((R)-7-(4-bromo-3-(trifluoromethyl)benzoyl)-2-(((S)-but-3-en-2-yl)amino)-6-methyl-4-oxo-5,6,7,8-tetrahydropyrido[3,4-d]pyrimidin-3(4H)-yl)-N,1-dimethyl-1H-pyrazole-5-carboxamide], for which the concentration for a half-maximal effect (EC50) in series [1] was below 50 nM. This compound also registered a CC50 at 3 days in series [2] above 50000 nM.
Taken in the same sequence, the figures for `CNC(=O)c1ccc(-n2c(NCC=C(C)C)nc3c(c2=O)C[C@@H](C)N(C(=O)c2ccc(Br)c(C(F)(F)F)c2)C3)cc1` [Compound 7] were below 50 nM and 7350 nM.

The values above are taken from US11957683B2, “Bicyclic compounds” (Aligos Therapeutics, Inc., priority 2021, dated 2024).
